Laboratory results from patent US9427433B2, “Methods and compositions for enhancing fertility and/or inhibiting pregnancy failure and restoring glucose tolerance” (Queen's University at Kingston, priority 2011, dated 2016).

Assays:
[1] = tested on: uteri of diabetic NOD mice; assay: Uterodome maturation (scanning electron microscopy) and uterine LIF Western blot; format: in vivo, mouse
Description: Using ice-cold sterile glass Dounce-tissue homogenizer, uterine samples collected from virgin and pregnant normoglycemic and diabetic NOD mice were homogenized in 3 volumes of the provided 1× homogenization buffer [Cytosolic and Nuclear Extraction Buffer Kit (Biovision Inc., CA, USA)] as per the manufacturer's instructions. Homogenized samples were centrifuged at 4° C. for 5 minutes at 16,000 g. Supernatants, referred to as cytosolic extracts, were immediately transferred into a clean pre-chilled tube kept on ice. Extraction of nuclear proteins from the remaining insoluble (pellet) fractions followed using ice-cold Nuclear Extraction Buffer Mix according to the supplier's instructions. Protein content of the extracted cytosolic and nuclear fractions was determined by Bradford assay. Extracted protein samples were aliquoted and stored at −80° C. for further analyses.
Mouse uterine cytosolic and nuclear proteins were resolved on 6 or 8% (w/v) Tris-SDS denaturing polyacrylamide gels in 1× sample loading buffer (150 mM sodium chloride, 1.0% Triton X-100 and 50 mM Tris, pH 8.0). Urea (8M) was added to the Tris-based SDS-PAGE for the detection of MUC1. […] Background-corrected intensities of Western blot protein bands on scanned films were processed using Image J. Data were expressed as means±SEM. GAPDH (detected as a band of approximately 37 kDa) was used as an internal loading control. […]

[2] = humans, single oral dose of 0.5 mg; cited from earlier work
[3] = tested on: patients with type I diabetes; conditions: 0.15 mg/kg BID; cited from earlier work
[4] = tested on: type 2 diabetic NZO and DIO mice; assay: Serum testosterone and luteinizing hormone (PCOS phenotype); format: in vivo, mouse
Description: Hypertestosteronism (Hyperandrogenism) and low serum levels of Luteinizing hormone (LH) are among the cardinal biochemical features of established PCOS syndrome. […] Serum samples from tacrolimus-treated and saline-injected type 2 diabetic NZO and DIO mice were analyzed for their testosterone and luteinizing hormone (LH) levels in the morning of vaginal plug detection after mating and at 4.5 days later to assess the integrity of their pituitary-ovarian endocrine interactions during successful mating and at embryo implantation.
Twenty NZO and DIO/B6 female mice were maintained on a high fat diet consisted of 60% kcal fat, 20% kcal protein and 20% kcal carbohydrate, with a total energy mass of 5.24 kcal/gm (D12492, Research Diets Inc.; Cedarlane Laboratories, Burlington, Ontario, Canada) starting at 7 weeks of age and maintained on the diet for a total of 12 weeks of study period during which their weekly body weight changes and non-fasting blood glucose values were recorded. Mice which became obese as defined by having a Body mass index (BMI) value of 30, and tested positive for glucose intolerance were selected for an initial treatment episode with tacrolimus after being fed for four weeks with the high fat diet (See FIG. 2). […]

[5] = tested on: pregnant diabetic NOD mice; assay: Pulse Wave Doppler of uterine arterial blood flow (resistance index); format: in vivo, mouse
Description: Uterine artery resistive index (RI) was calculated for each vessel according to the equation: RI=(Peak Systolic Velocity−Peak Diastolic Velocity)/Peak Systolic Velocity to assess maternal hemodynamic characteristics of tacrolimus-treated versus the normoglycemic and the vehicle-treated diabetic NOD mice.
Following the procedure described by Mu and Adamson (Am. J. Physiol. Heart Circ. Physiol. 291: H1421-H1428) for comparing patterns of blood flow hemodynamics in the uterine artery, transcutaneous ultrasound biomicroscopy and Doppler waveform recording were collected and analyzed from tacrolimus treated versus the diabetic and obese mice and their normoglycemic control cohort of mated pregnant mice using a microultrasound biomicroscope (Vivo770, Visual Sonic Inc., Toronto, Ontario, Canada) and a 30-40 MHz Real-Time Micro Visualization scanhead transducer operating at two frames per second (RMV704 or 708, VisualSonics Inc). […] Maternal heart and respiration rates were recorded via a physiological controller unit connected to the mechanical platform. […] Systolic and diastolic flow parameters were assessed in the selected point along the course of the uterine artery at 3-5 min intervals and the resistance index (RI=[PSV−EDV]/PSV) was calculated when EDV>0 to measure the pulsatility of arterial blood velocity waveforms.

[6] = tested on: IFN-γ mRNA; assay: Decidual/placental IFN-γ mRNA levels; format: in vivo, mouse; conditions: mid- to late pregnancy; NOD mice, 1 or 0.1 mg/kg q2d for three weeks with or without 10 mg/kg loading dose
Description: In these studies, pregnancy progression and the glycemic control of mice treated with tacrolimus were examined. In an initial set of experiments, a loading dose of 10 mg/kg was initially administered to mice at the pre-diabetic stage followed by a maintenance dose of 1 or 0.1 mg/kg every other day (q2d) for three weeks after the last injection of which animals were allowed to mate and get pregnant. In an additional set of experiments mice were injected every other day with either 1 or 0.1 mg/kg dose for three weeks during the pre-diabetic stage and after the last injection of which mice were mated and examined for the progress of their pregnancy. Ultrasonic, vascular resistance index measurements, morphologic analyses were conducted on immunosuppressed and control NOD dams and their gestational uterine samples throughout pregnancy. Uterine, decidual and placental IFN-γ mRNA levels were also measured. Immunosuppressed NOD mice achieved and maintained normal glucose homeostasis with normal pregnancy pattern and a higher rate of viably implanted embryos and fetuses having normal phenotypic appearance. Placentae of NOD mice treated with tacrolimus were more deciduomatous, and the integrity of the stem, anchoring and branching placental villi were maintained. […]

C=CC[C@@H]1/C=C(\C)C[C@H](C)C[C@H](OC)[C@H]2O[C@@](O)(C(=O)C(=O)N3CCCC[C@H]3C(=O)O[C@H](/C(C)=C/[C@@H]3CC[C@@H](O)[C@H](OC)C3)[C@H](C)[C@@H](O)CC1=O)[C@H](C)C[C@@H]2OC [tacrolimus]
uterine LIF protein expression (Western blot) ([1]; days 4.5 and 6.5 postcoitum): induced LIF protein expression | maturation of uterodomes at implantation sites ([1]; pregnancy day 4.5): inducing maturation of uterodomes | maximal blood concentration [2]: 4.6 ng/mL | outcome of clinical study in type I diabetes [3]: inconclusive | pituitary-ovarian response and hormonal release to mating ([4]; morning of vaginal plug and 4.5 days later): restored normal pituitary-ovarian response and hormonal release to mating | development of PCOS phenotype (hypertestosteronism, low serum LH) ([4]; short-term administration, high fat diet): prevented the development of PCOS phenotype | treated pregnant diabetic mice with sustained decidual arteriolar flow velocity and normalized vascular resistance to uterine blood flow ([5]; Doppler waveform, p<0.05 vs vehicle-treated diabetic mice): 88% | uterine arterial hemodynamics ([5]; throughout pregnancy): improved uterine arterial hemodynamics | decidual/placental IFN-γ mRNA [6]: Lower normal levels of decidual/placental IFN-γ mRNA
